Measurements published in patent US20190290683A1 (KEIO UNIVERSITY, priority 2016, published 2019).
Like-named read-outs stand apart in the source and are kept apart here.

Key:
[1] = system: rat hemorrhagic shock model; settings: 6 hours after initiation of resuscitation; 1.3% hydrogen+26% oxygen+72.7% nitrogen inhaled 0 to 120 minutes (resuscitation phase only); control 30%
Method: In this test, improvement of the survival rate by hydrogen inhalation at the initiation point of resuscitation after shock in rat hemorrhagic shock model was evaluated.
The procedure in SD rats (250-300 g) to exsanguinate so that mean arterial pressure of 30-35 mmHg was maintained for 60 minutes, and then resuscitate with four times the exsanguinated volume of saline over 15 minutes to evaluate the survival rate at 6 hours after initiation of resuscitation was according to [Example 1].
In this test, test gas was given by inhalation as follows.

hemorrhagic shock model = settings: for Exsanguinated/body weight (ml/100 g): exsanguinated volume per 100 g of body weight to maintain blood pressure at 30-35 mmHg
Method: In this Example, the effect of hydrogen gas on a hemorrhagic shock model was evaluated according to the test protocol shown in FIG. 1.
With SD rats (male, 250-300 g), an anesthetic drug was intraperitoneally administered to perform general anesthesia. Subsequently, a PE catheter was inserted into the left femoral artery to perform direct arterial pressure monitoring, and further, an exsanguination catheter from the right femoral artery and a left ventricle catheter for cardiac function measurement from the right common artery were each inserted.
The shock phase was initiated with the initiation of exsanguination. Exsanguination was slowly performed over 15 minutes, and for a total of 60 minutes since the initiation of exsanguination, the mean arterial pressure was maintained at 30-35 mmHg.
The resuscitation phase was initiated with the initiation of resuscitation by transfusion. Transfusion resuscitation by four times the exsanguinated volume of saline was performed over 15 minutes. Test gas inhalation (hydrogen group (21% oxygen+1.3% hydrogen) and control group (21% oxygen)) were performed for a total of 3 hours from the initiation of exsanguination to 2 hours after the initiation of resuscitation. In doing so, cardiac function (LVEDP, ±dP/dt) during the same period was also recorded.
The initiation of the observation phase was 2 hours after the initiation of the resuscitation phase, and observation was performed for 4 hours thereafter (6 hours from the initiation of the resuscitation phase). During this period, blood pressure (systolic, diastolic, mean), heart rate, and the like were measured with artificial respiration in room air.
Lactic acid value and blood gas at the initiation point of shock phase (baseline), the initiation point of resuscitation phase (0 minute), the initiation point of observation phase (120 minutes), and the end-of-test timepoint (360 minutes) were each measured and evaluated.

[2] = change over time after initiation of resuscitation, vs control group
[3] = change over time after initiation of resuscitation, vs control group, throughout the observation period
[4] = electrolyte at 120 minutes, vs control group

[HH] [hydrogen gas]
survival rate [1]: 50%
heart rate (hemorrhagic shock model; after initiation of resuscitation, vs control group): no great difference
pH (hemorrhagic shock model; blood gas at 120 minutes, vs control group, normal value about 7.4): statistically significantly higher
HCO3 (hemorrhagic shock model; blood gas at 120 minutes, vs control group, normal value about 24): statistically significantly higher
BE (base excess) (hemorrhagic shock model; blood gas at 120 minutes, vs control group, normal value about -2): statistically significantly improved
left ventricular end-diastolic pressure (LVEDP) (hemorrhagic shock model; [2]): no statistically significantly difference
negative dP/dt (hemorrhagic shock model; [2]): no statistically significantly difference
positive dP/dt (hemorrhagic shock model; [2]): no statistically significantly difference
diastolic blood pressure (hemorrhagic shock model; [3]): higher value
mean blood pressure (hemorrhagic shock model; [3]): higher value
systolic blood pressure (hemorrhagic shock model; [3]): higher value
K (hemorrhagic shock model; [4]): statistically significantly lower
Na (hemorrhagic shock model; [4]): no statistically significant difference
survival (individuals surviving) (hemorrhagic shock model; end-of-test timepoint at 6 hours after initiation of resuscitation, control 3/10): 8/10
Exsanguinated/body weight (ml/100 g) (hemorrhagic shock model; 21% oxygen+1.3% hydrogen, N = 15): 2.60±0.40 ml/100 g
Exsanguinated/body weight (ml/100 g) (hemorrhagic shock model; 21% oxygen+1.3% hydrogen, N = 15, listed as H2): 2.60 ± 0.40 ml/100 g
Exsanguinated (hemorrhagic shock model; exsanguinated volume to maintain mean arterial pressure at 30-35 mmHg, 21% oxygen+1.3% hydrogen, N = 15): 7.03 ± 1.15 mL
hemoglobin (Hb) (hemorrhagic shock model; extent of anemia at 120 minutes, vs control group): no statistically significant difference
lactic acid value (hemorrhagic shock model; initiation point of observation phase (120 minutes), vs control group, normal value 1.0 or less): statistically significantly lower
PaCO2 (Partial pressure of carbon dioxide) (hemorrhagic shock model; oxygenation indicator at 120 minutes, vs control group, normal around 40 mmHg): no statistical difference
PaO2 (Partial pressure of oxygen) (hemorrhagic shock model; oxygenation indicator at 120 minutes, vs control group, normal around 100 mmHg): higher values for the control group
